Reference: publication PMC10609273, “Radiosynthesis and Early Evaluation of a Positron Emission Tomography Imaging Probe [^18F]AGAL Targeting Alpha-Galactosidase A Enzyme for Fabry Disease” (Molecules, 2023)
pIC50: −log10 of the molar value. Like-named read-outs stand apart in the source and are kept apart here.

Assays:
[1] = molecular target: T1, Chinese hamster ovary cell-derived wild type aGal A (CHO aGal A) (Homo sapiens, UniProt P06280); assay: In vitro affinity assay: residual activity of CHO aGal A enzyme, hydrolysis of 4-methylumbelliferyl-α-D-galactopyranoside; format: biochemical; conditions: 1 nM enzyme, 30 min preincubation at room temperature, pH 4.6, 5 mM 4-MUGA substrate
T1 construct: host or cells: Chinese hamster ovary (CHO) cells
T1 sequence (P06280 32-429): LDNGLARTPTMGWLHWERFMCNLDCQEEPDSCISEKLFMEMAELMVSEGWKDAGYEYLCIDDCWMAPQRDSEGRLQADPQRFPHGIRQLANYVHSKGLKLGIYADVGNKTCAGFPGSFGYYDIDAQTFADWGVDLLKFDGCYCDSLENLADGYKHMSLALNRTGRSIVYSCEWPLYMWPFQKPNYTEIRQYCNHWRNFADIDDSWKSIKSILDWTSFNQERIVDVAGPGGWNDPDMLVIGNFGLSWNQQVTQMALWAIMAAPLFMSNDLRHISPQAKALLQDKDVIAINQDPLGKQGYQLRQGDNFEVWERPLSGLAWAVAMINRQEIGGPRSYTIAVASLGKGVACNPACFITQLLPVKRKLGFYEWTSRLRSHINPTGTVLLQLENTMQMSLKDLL
Experimental: Using an in vitro affinity assay, measurement of residual activity by preincubating the enzyme with varying concentrations of the probe confirmed that the [^19F]
Figure 5 Residual activity of CHO aGal A enzyme measured via hydrolysis of substrate 4−methylumbelliferyl−α−D−galactopyranoside after 30 min of preincubation with AGAL probe.
The IC50 assessment for the aGal inhibitors was performed using the fluorescent substrate in a McIlvaine buffer at pH 4.6. The CHO aGal A enzyme at 1 nM was pre-incubated with different concentrations of the inhibitor or DMSO as control for 30 min at room temperature. The fluorescent substrate 4-methylumbelliferyl-α-D-galactopyranoside (Research Products International company, catalog number M65400, Mount Prospect, IL, USA) was then added to a final concentration of 5 mM. The reaction was quenched with 0.5 M sodium bicarbonate buffer, with pH 10.5, and plates were read using a SpectraMax reader at excitation and emission wavelengths of 360 and 460 nm, respectively. Data were corrected for background fluorescence and IC50 calculation was performed using an inhibitory dose–response curve fitting in GraphPad Prizm 8.0.

[2] = Bidirectional permeability in Caco-2 cells; format: in vitro ADME; conditions: human, Caco-2, 5 µM, alone
Experimental: (§1) The Caco-2 cell culture and bidirectional permeability assays used in the study were adapted from previous studies at Takeda. Briefly, Caco-2 cells were obtained from American Type Culture Collection (ATCC) (Manassas, VA, USA) and were cultured in 175 cm^2 tissue culture T-flasks (Corning Life Sciences, Corning, NY, USA). For bidirectional permeability assays, cells were plated onto Costar 24-well culture plates (0.33 cm^2/well, […] (Corning Life Sciences, Corning, NY, USA) by adding 1 × 10^5 cells suspended in 0.2 mL of culture medium (Dulbecco’s modified Eagle’s medium [DMEM] with 0.1 mM non-essential amino acids, 2 mM L-glutamine, 4.5 g/L glucose, and 10% fetal bovine serum [FBS]) to the upper chamber of each well of the 24-well transwell plate. Cell-free culture medium (40 mL) was added to the lower chamber reservoir (Corning Life Sciences, Corning, NY, USA). The transwell plates were then incubated at 37 °C in an atmosphere of 5% CO2 for 25 days to ensure complete enterocyte-like differentiation of the cells, and the culture medium was changed every three to four days during the incubation period. Cell monolayers with transepithelial electrical resistance (TEER) values > 250 ohms × cm^2 were used for the bidirectional permeability assays.
(§2) All chemicals and reagents including control compounds were purchased from commercial sources such as Sigma-Aldrich or synthesized in house (pevonedistat and LY335979). Bidirectional transport studies were performed at 37 °C. Before each experiment, the confluent cell monolayers on transwell inserts were washed and equilibrated for 30 min with transport media (Hank’s Balanced Salt Solution [HBSS] containing 25 mM 4-(2-hydroxyethyl)-1-piperazineethanesulfonic acid [HEPES] and 10 mM glucose, pH 7.4 or 6.5). The bidirectional permeability of 5 µM of the cyclohexane derivative was assessed alone or in the presence of 5 µM LY335979, 5 µM K0143, or 10 µM Elacridar to inhibit P-gp, BCRP, and both efflux transporters, respectively. Additionally, the bi-directional permeability of 5 µM solutions of nadolol (low permeable control marker), minoxidil (high permeable marker), propranolol (high permeable marker), and pevonedistat (efflux transporter control) was also assessed. The experiment was initiated by adding a solution containing the test compounds and LY335979 to either the apical (for apical-to-basolateral [A-to-B] transport) or basolateral (for basolateral-to-apical [B-to-A] transport) compartment. Lucifer yellow (50 µM) was added to each donor chamber in the experiment to serve as a paracellular transport control and to monitor cell monolayer integrity. The apical volume was 0.2 mL and the basolateral volume was 1.0 mL. Bovine serum albumin (BSA, Sigma Aldrich) (5%) was added to the transport media on the receiver side to prevent non-specific binding of the test compound to the polystyrene well. After the addition of test compound into the donor side, […] of the receiving solution were withdrawn from the receiver side at 30 and 60 min. A […] of fresh transport media was immediately added to the receiver side at 30 and 60 min. The samples were placed into 96-well black plates (PerkinElmer Life Sciences, Boston, MA, USA) for fluorescence measurement (excitation at 450 nm and emission at 535 nm). After this measurement, the amounts of cyclohexane derivative and control compounds in each sample were quantified with liquid chromatography–mass spectrometry (LC–MS). The time course of drug transported across cell monolayers was analyzed to determine the time and rate of steady-state flux. The transport rate (total amount of drug present in the receiver chamber per unit time), Papp, and efflux ratio were calculated as described in Equations (4) and (5). […]

BCRP = assay: Bidirectional permeability in Caco-2 cells; format: in vitro ADME; conditions: human
Experimental: as §1, §2

Caco-2 cells = assay: Bidirectional permeability in Caco-2 cells; format: in vitro ADME
Experimental: as §1, §2

[3] = Caco-2, with KO143 5 µM, 5 µM, + 5 µM KO143 (BCRP inhibitor)

pIC50 [1]: 7.52
Papp A→B at 60 min, 5 µM [2]: 0.11 ×10⁻⁶ cm/s
Papp B→A at 60 min, 5 µM [2]: 1.36 ×10⁻⁶ cm/s
efflux ratio at 60 min, 5 µM ([2]; read-out: Ratio (B/A), efflux ratio): 12
efflux ratio at 60 min, 5 µM (BCRP; Caco-2, with K0143 5 µM, by BCRP inhibitor K0143, read-out: reduction of the efflux ratio): 1.4
Papp A→B at 60 min, 5 µM (BCRP; [3]): 0.15 ×10⁻⁶ cm/s
Papp B→A at 60 min, 5 µM (BCRP; [3]): 1.31 ×10⁻⁶ cm/s
efflux ratio at 60 min, 5 µM (BCRP; Caco-2, with KO143 5 µM, 5 µM, + 5 µM KO143 (BCRP inhibitor), read-out: Ratio (B/A), efflux ratio): 8.7
reduction of the efflux ratio (Caco-2 cells; by LY335979): 67%
reduction of the efflux ratio (Caco-2 cells; by elacridar): 76%
SMILES: O=C(CCCCCCCn1cc(CCCF)nn1)N1[C@@H]2[C@H](O)[C@@H](O)[C@@H](O)[C@@H](CO)[C@@H]21 [AGAL]
